This passage reports IC50 results from BindingDB's records for doi:10.1016/j.bmc.2021.116161 (University of Nantes, 2021).

Assay [1] in a line: Inhibition of IL-15 in mouse 32Dbeta cells assessed as decrease in cell growth in presence of RLI incubated for 30 mins followed by RLI addition and measured after 2.5 days by alamar blue assay. In general terms: Alamar Blue is a resazurin reagent that responds to reducing activity.
Assay [2] in a line: Inhibition of […] in mouse 32Dbeta cells assessed as decrease in cell growth in presence of IL2 incubated for 30 mins followed by IL2 addition and measured after 2.5 days by alamar blue assay.

Each structure is given as a SMILES string.

The IC50 is the concentration at which inhibition is half-maximal. For the compound `Cn1c(Cc2nn(C)c(=O)c3ccccc23)nnc1SCC(=O)Nc1ccc(Cl)cc1Cl`, the IC50 was determined as 22.5 µM in assay [1] and 21.1 µM in assay [2].
Take `Cn1c(Cc2nn(C)c(=O)c3ccccc23)nnc1SCCCCCCCC(=O)Nc1ccc(Cl)cc1Cl`: the figures for the IC50 in assay [1] and in assay [2] were 2.2 µM and 3.9 µM, respectively.
On to `CCOC(CCn1c(Cc2nn(C)c(=O)c3ccccc23)nnc1SCC(=O)Nc1ccc(Cl)cc1Cl)OCC`, for which the IC50 in assay [1] and in assay [2] was > 30 µM each time.
In the case of `Cn1nc(Cc2nnc(SCC(=O)Nc3ccc(Cl)cc3Cl)n2CCC=O)c2ccccc2c1=O`, the IC50 amounted to 6 µM in assay [1] and 6.4 µM in assay [2].
For the compound `Cn1nc(Cc2nnc(SCC(=O)Nc3ccc(Cl)cc3Cl)n2CCCO)c2ccccc2c1=O`, the IC50 in assay [1] and in assay [2] was > 30 µM throughout.
On to `Cn1nc(Cc2nnc(SCC(=O)Nc3ccc(Cl)cc3Cl)n2CCC(=O)O)c2ccccc2c1=O`, for which the IC50 in assay [1] and in assay [2] was > 30 µM in each case.
Consider `Cn1c(Cc2nn(CCC3OCCO3)c(=O)c3ccccc23)nnc1SCC(=O)Nc1ccc(Cl)cc1Cl`, for which the IC50 in assay [1] and in assay [2] was > 30 µM each time.
For `Cn1c(Cc2nn(CCC=O)c(=O)c3ccccc23)nnc1SCC(=O)Nc1ccc(Cl)cc1Cl`, the IC50 in assay [1] and in assay [2] was 30 µM throughout.
As to `Cn1c(Cc2nn(CCCO)c(=O)c3ccccc23)nnc1SCC(=O)Nc1ccc(Cl)cc1Cl`, the IC50 in assay [1] and in assay [2] was > 30 µM throughout.
Consider `Cn1c(Cc2nn(CCC(=O)O)c(=O)c3ccccc23)nnc1SCC(=O)Nc1ccc(Cl)cc1Cl`, for which the IC50 in assay [1] and in assay [2] was > 30 µM in each case.
For `CN(C)CCCn1nc(Cc2nnc(SCC(=O)Nc3ccc(Cl)cc3Cl)n2C)c2ccccc2c1=O`, the IC50 in assay [1] is 18.8 µM; in assay [2] it was 16.7 µM.
Take `CCOC(CCn1c(Cc2nn(C)c(=O)c3ccccc23)nnc1SCCCCCCCC(=O)Nc1ccc(Cl)cc1Cl)OCC`: the IC50 in assay [1] came to 12.1 µM; in assay [2], 16.4 µM.
Turning to `Cn1nc(Cc2nnc(SCCCCCCCC(=O)Nc3ccc(Cl)cc3Cl)n2CCC=O)c2ccccc2c1=O`, the IC50 in assay [1] was determined as 2.5 µM; in assay [2] it was 5.5 µM.
In the same order, the values of `Cn1nc(Cc2nnc(SCCCCCCCC(=O)Nc3ccc(Cl)cc3Cl)[nH]2)c2ccccc2c1=O` are 1.1 µM and 3.5 µM.
Take `Cn1nc(Cc2nnc(SCCCCCCCC(=O)Nc3ccc(Cl)cc3Cl)n2CCCO[Si](C)(C)C(C)(C)C)c2ccccc2c1=O`: the IC50 in assay [1] and in assay [2] was > 30 µM each time.
On to `Cn1nc(Cc2nnc(SCCCCCCCC(=O)Nc3ccc(Cl)cc3Cl)n2CCCO)c2ccccc2c1=O`, for which the IC50 in assay [1] and in assay [2] was > 30 µM each time.
Turning to `Cn1nc(Cc2nnc(SCCCCCCCC(=O)Nc3ccc(Cl)cc3Cl)n2CCC(=O)O)c2ccccc2c1=O`, the concentration for half-maximal inhibition (IC50) in assay [1] and in assay [2] was > 30 µM throughout.
As to `CN(C)CCCn1c(Cc2nn(C)c(=O)c3ccccc23)nnc1SCCCCCCCC(=O)Nc1ccc(Cl)cc1Cl`, the IC50 is 3.7 µM in assay [1] and 5.5 µM in assay [2].
Regarding `Cn1c(Cc2nn(CCCO[Si](C)(C)C(C)(C)C)c(=O)c3ccccc23)nnc1SCCCCCCCC(=O)Nc1ccc(Cl)cc1Cl`, the IC50 in assay [1] and in assay [2] was > 30 µM each time.
On to `Cn1c(Cc2nn(CCC=O)c(=O)c3ccccc23)nnc1SCCCCCCCC(=O)Nc1ccc(Cl)cc1Cl`, for which the IC50 in assay [1] was determined as 8.9 µM; in assay [2], 11.7 µM.
Turning to `Cn1c(Cc2nn(CCCO)c(=O)c3ccccc23)nnc1SCCCCCCCC(=O)Nc1ccc(Cl)cc1Cl`, the IC50 in assay [1] and in assay [2] was > 30 µM each time.
With `Cn1c(Cc2nn(CCC(=O)O)c(=O)c3ccccc23)nnc1SCCCCCCCC(=O)Nc1ccc(Cl)cc1Cl`, the IC50 in assay [1] and in assay [2] was > 30 µM throughout.
Regarding `CN(C)CCCn1nc(Cc2nnc(SCCCCCCCC(=O)Nc3ccc(Cl)cc3Cl)n2C)c2ccccc2c1=O`, the results for the IC50 in assay [1] and in assay [2] were 2.3 µM and 3.2 µM, respectively.
On to `Cn1c(Cc2n[nH]c(=O)c3ccccc23)nnc1SCCCCCCCC(=O)Nc1ccc(Cl)cc1Cl`, for which the IC50 in assay [1] and in assay [2] was > 30 µM throughout.
`Cn1c(Cc2nn(C)c(=O)c3ccccc23)nnc1SCCCCCCCC(=O)Nc1ccc(C(=O)c2ccccc2)cc1`: the IC50 in assay [1] came out at 6.7 µM; in assay [2] it was 20.6 µM.
